Measured values: patent publication US6838436B1, “Inhibitors of proteasomal activity for stimulating bone growth” (Osteoscreen Inc., priority 1998, dated 2005)

System: hair follicles of skin explants
Experiment: Skin explants from mice during telogen (Example 16)
Assay type: cell-based
Settings: 72 hours
From the text: In the untreated control explants, the follicles were few and small.

Nc1cc(N2CCCCC2)nc(N)[n+]1[O-] [Minoxidil]
concentrations causing these changes, relative to the proteasome inhibitors: 10,000 fold
